Patent US20220332700A1, “NOVEL APOPTOSIS SIGNAL-REGULATING KINASE 1 INHIBITORS” (MANKIND PHARMA LTD, priority 2019, published 2022)

What was measured:
recombinant ASK1 = target: T1, recombinant ASK1 (Homo sapiens, UniProt Q99683); test: ASK1 Biochemical Assay (HTRF KinEASE-STK S3); details: ATP 100 μM; read-out: Biochemical Assay IC50
T1 construct: purchased Carna Biosciences
Method: ASK1 biochemical assay was standardized using recombinant ASK1 (Carna Biosciences), substrate and detection reagents from Cisbio HRTF KinEASE-STK S3 kit. Enzyme concentration, ATP, biotinylated STK substrate and STK antibodies were titrated for enzyme assay. Assay was carried out in ASK1 kinase buffer, 10 mM MOPS pH-7, 10 mM Mg-acetate, 1 mM DTT, 0.025% NP40, 1.5% glycerol and 0.05% BSA. DMSO was used as vehicle control with a final concentration of 1%. A 5 ng of ASK1 enzyme was incubated with compound for 1 hour at 23° C. on a shaker at 100rpm. ATP and biotin substrate was added at a final concentration of 100 μM and 1 μM and incubated for 3 hours at 23° C. on a shaker at 100rpm. […] Delta F ratios were calculated from data obtained at excitation (337 nm) and emission wavelengths (665 nm and 620-10 nm). Substrate blank values was considered as negative control. Values from negative control was substrated from vehicle control and compound treated wells. Enzyme inhibition by compounds were calculated from vehicle controls, which represent uninterrupted enzyme's activity.

Human ASK1 = target: T2, Human ASK1 (Homo sapiens, UniProt Q99683); test: ASK1 Cell Based Assay (phospho p38 read out in hASK1 transfected HEK293T-AP1 cells); details: HEK293T-AP1 cells, 1 mM hydrogen peroxide, phospho p38; read-out: Cell Based Assay IC50
T2 construct: expressed in transfected cells; host or cells: HEK293T-AP1
T2 sequence (Q99683 1-1374): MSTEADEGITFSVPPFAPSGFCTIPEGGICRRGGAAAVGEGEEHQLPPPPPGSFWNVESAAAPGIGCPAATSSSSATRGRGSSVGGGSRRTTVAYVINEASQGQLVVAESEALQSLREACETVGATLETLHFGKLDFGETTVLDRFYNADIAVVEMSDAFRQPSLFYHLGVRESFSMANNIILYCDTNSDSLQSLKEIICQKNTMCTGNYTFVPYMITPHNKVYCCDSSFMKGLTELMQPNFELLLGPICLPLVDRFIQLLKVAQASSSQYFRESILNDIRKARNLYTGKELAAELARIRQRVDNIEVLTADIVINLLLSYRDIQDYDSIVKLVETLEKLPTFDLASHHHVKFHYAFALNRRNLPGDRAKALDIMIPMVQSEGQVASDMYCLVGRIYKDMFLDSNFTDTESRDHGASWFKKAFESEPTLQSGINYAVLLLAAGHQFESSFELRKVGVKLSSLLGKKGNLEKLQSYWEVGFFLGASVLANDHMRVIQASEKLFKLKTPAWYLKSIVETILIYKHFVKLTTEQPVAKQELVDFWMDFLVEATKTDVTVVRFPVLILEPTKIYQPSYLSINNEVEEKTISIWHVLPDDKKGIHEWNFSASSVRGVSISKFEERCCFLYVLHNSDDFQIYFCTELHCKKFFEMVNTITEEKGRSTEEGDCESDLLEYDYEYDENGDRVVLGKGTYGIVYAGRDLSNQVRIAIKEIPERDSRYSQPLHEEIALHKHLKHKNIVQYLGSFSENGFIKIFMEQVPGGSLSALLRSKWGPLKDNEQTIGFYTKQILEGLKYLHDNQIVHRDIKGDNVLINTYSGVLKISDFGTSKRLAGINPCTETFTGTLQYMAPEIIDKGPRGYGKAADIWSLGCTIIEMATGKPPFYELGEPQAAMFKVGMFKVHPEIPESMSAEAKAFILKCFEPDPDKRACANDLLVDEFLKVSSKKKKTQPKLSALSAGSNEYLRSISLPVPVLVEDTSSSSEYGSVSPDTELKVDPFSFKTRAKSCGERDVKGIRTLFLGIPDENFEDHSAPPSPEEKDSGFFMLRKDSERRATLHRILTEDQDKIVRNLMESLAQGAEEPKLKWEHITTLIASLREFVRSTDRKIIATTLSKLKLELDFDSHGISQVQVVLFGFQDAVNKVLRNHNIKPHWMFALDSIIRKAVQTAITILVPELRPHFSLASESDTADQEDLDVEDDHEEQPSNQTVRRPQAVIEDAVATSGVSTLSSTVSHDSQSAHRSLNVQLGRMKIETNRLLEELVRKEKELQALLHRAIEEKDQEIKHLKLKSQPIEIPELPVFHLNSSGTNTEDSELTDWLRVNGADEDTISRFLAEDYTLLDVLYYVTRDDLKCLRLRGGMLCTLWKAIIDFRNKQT
Method: HEK293T-AP1 cells were seeded at a density of 20,000 cells per well in a poly-d-lysine coated 96 well microplate. Next day, cells were transfected with hASK1-pcDNA3.1 vector using lipofectamine 3000. After 24 hours of transfection, cells were treated with compounds for 24 hours in assay medium. DMSO was used as a vehicle control with a final DMSO concentration of 0.2%. On 4th day, medium was discarded and cells were activated with 1 mM hydrogen peroxide for 1 hour in the presence of compounds. Cells were lysed for 1 hour with 1× lysis buffer on a shaker at 100 rpm. Sixteen microliters of lysate was collected into a 384 well small volume plate. Phospho p38 levels in the lysate was detected by using CisbioPhospho-p38 MAPK (Thr180/Tyr182) #64P38PEG.Four microliters of phospho p38 antibodies labelled with europium cryptate and d2 acceptor, were added to the lysate and incubated overnight. TR-FRET was measured at an excitation of 335 nm and emission was measured at 615 nm and 665 nm in BMG FLUOstar multimode reader.
Compounds were assessed for ASK1 inhibition based on phospho p38 read out. […] Background control values were susbtracted from vehicle control as well as from compound treated wells.

Row | IC50 (recombinant ASK1) | IC50 (Human ASK1) | SMILES
1 | 70 nM | > 1000 nM | CC(C)n1cnnc1-c1cccc(N2CCN(c3cccc(-n4ccnc4)c3)C2=O)n1 [Example 1002, 1-(3-(1H-imidazol-1-yl)phenyl)-3-(6-(4-isopropyl-4H-1,2,4-triazol-3-yl)pyridin-2-yl)imidazolidin-2-one]
2 | 30 nM | > 1000 nM | CC(C)n1cnnc1-c1cccc(N2CCN(c3cccc(-c4ccc(S(C)(=O)=O)cc4)c3)C2=O)n1 [Example 1007, 1-(6-(4-isopropyl-4H-1,2,4-triazol-3-yl)pyridin-2-yl)-3-(4′-(methylsulfonyl)-[1,1′-biphenyl]-3-yl)imidazolidin-2-one]
3 | 25 nM | > 1000 nM | CC(C)n1cnnc1-c1cccc(N2CCN(c3cccc(-c4ccc(S(C)(=O)=O)nc4)c3)C2=O)n1 [Example 1010, 1-(6-(4-isopropyl-4H-1,2,4-triazol-3-yl)pyridin-2-yl)-3-(3-(6-(methylsulfonyl)pyridin-3-yl)phenyl)imidazolidin-2-one]
4 | < 1000 nM | > 10000 nM | CC(C)n1cnnc1-c1cccc(N2CCN(c3cccc(-c4ccncc4)c3)C2=O)n1 [Example 1011, 1-(6-(4-isopropyl-4H-1,2,4-triazol-3-yl)pyridin-2-yl)-3-(3-(pyridin-4-yl)phenyl)imidazolidin-2-one]
5 | < 100 nM | < 1000 nM | CC(C)n1cnnc1-c1cccc(N2CCN(c3ccc(S(C)(=O)=O)cc3)C2=O)n1 [Example 1013, 1-(6-(4-isopropyl-4H-1,2,4-triazol-3-yl)pyridin-2-yl)-3-(4-(methylsulfonyl)phenyl)imidazolidin-2-one]
6 | > 100 nM | > 10000 nM | CC(C)n1cnnc1-c1cccc(N2CCN(c3cccc(-c4cnn(S(C)(=O)=O)c4)c3)C2=O)n1 [Example 1014, 1-(6-(4-isopropyl-4H-1,2,4-triazol-3-yl)pyridin-2-yl)-3-(3-(1-(methylsulfonyl)-1H-pyrazol-4-yl)phenyl)imidazolidin-2-one]
7 | < 100 nM | > 1000 nM | CC(C)n1cnnc1-c1cccc(N2CCN(c3ccc(S(C)(=O)=O)nc3)C2=O)n1 [Example 1018, 1-(6-(4-isopropyl-4H-1,2,4-triazol-3-yl)pyridin-2-yl)-3-(6-(methylsulfonyl)pyridin-3-yl)imidazolidin-2-one]
8 | > 100 nM | > 10000 nM | COc1ccc(-c2ccc(S(C)(=O)=O)nc2)cc1N1CCN(c2cccc(-c3nncn3C(C)C)n2)C1=O [Example 1019, 1-(6-(4-isopropyl-4H-1,2,4-triazol-3-yl)pyridin-2-yl)-3-(2-methoxy-5-(6-(methylsulfonyl)pyridin-3-yl)phenyl)imidazolidin-2-one]
9 | < 100 nM | > 10000 nM | CC(C)n1cnnc1-c1cccc(N2CCN(c3ccc(S(N)(=O)=O)cc3)C2=O)n1 [Example 1020, 4-(3-(6-(4-isopropyl-4H-1,2,4-triazol-3-yl)pyridin-2-yl)-2-oxoimidazolidin-1-yl)benzenesulfonamide]
10 | > 1000 nM | > 10000 nM | CC(C)n1cnnc1-c1cccc(N2CCN(c3cc(-c4ccc(S(C)(=O)=O)nc4)ccc3F)C2=O)n1 [Example 1021, 1-(2-fluoro-5-(6-(methylsulfonyl)pyridin-3-yl)phenyl)-3-(6-(4-isopropyl-4H-1,2,4-triazol-3-yl)pyridin-2-yl)imidazolidin-2-one]
11 | < 100 nM | > 1000 nM | CC(C)n1cnnc1-c1cccc(N2CCNC2=O)n1 [Example 1022, 1-(6-(4-isopropyl-4H-1,2,4-triazol-3-yl)pyridin-2-yl)imidazolidin-2-one]
12 |  | > 1000 nM | CC(C)n1cnnc1-c1cccc(N2CCN(c3ccc(S(N)(=O)=O)cc3)C2=O)n1 [Example 1023, 4-(3-(6-(4-isopropyl-4H-1,2,4-triazol-3-yl)pyridin-2-yl)-2-oxoimidazolidin-1-yl)benzenesulfonamide]
